tested on: human embryonic stem cell derived neural stem cells (NSCs); assay: Neural stem cell proliferation assay (neurogenesis assay); format: cell-based; conditions: Homo sapiens, Neural stem cell, 96 h; Table 1, novel compounds; concentration at which 150% activity of control (100%) is reached; ATP levels (CellTiterGlo) after 4 days incubation
Experimental: Neural Stem Cell Proliferation Assay
Neurogenic properties of small molecules are determined based on the proliferation of human embryonic stem cell derived neural stem cells (NSCs) which were derived via a dual smad inhibition as previously described (Chambers, S. M., et al., Highly efficient neural conversion of human ES and iPS cells by dual inhibition of SMAD signaling, Nature biotechnology, 2009. 27 (3): p. 275-80.)
Compounds respond is measured by the increase in cells based on ATP levels (Promega:CellTiterGlo®) after an incubation period of 4 days.
NSCs are thawed and expanded over 3 passages. On the 14th day, NSCs are seeded in Polyornithin/Laminin coated 384 well plates at a cell density of 21,000 cells/cm^2 in a media volume of 38 μl.
4 hours after cell seeding, compound solutions are added at a volume of 2 μl. Stock solutions of the compounds (water, 5% DMSO) are diluted to obtain a dose response (11 points, dilution factor is 2), ranging from 8 μM to 8 nM. Controls are run to consistently determine the neurogenic properties of the cells:
Negative (neutral) control is cell culture Media (final DMSO concentration: 0.25%).
Positive controls are: • 1. cell culture Media+100 ng/ml FGF2 (final DMSO concentration: 0.1%) • 2. cell culture Media+20 ng/ml EGF (final DMSO concentration: 0.1%) • 3. cell culture Media+100 ng/ml Wnt3a (final DMSO concentration: 0.1%)
After 4 days incubation at 37° C., 5% CO2, the amount of ATP per well is quantified. The ATP concentration is proportional to the cell number. ATP is quantified by using the Promega CellTiterGlo® kit. The CellTiterGlo® reagents contain a cell lysis buffer, a thermo stable luciferase (UltraGlo™ recombinant luciferase), magnesium and luciferin. Luciferin reacts with ATP producing oxyluciferin, AMP and light. The luminescence signal is proportional to the ATP content.
The value of negative (neutral) control is determined for each assay plate by taking the average of 16 negative control wells. The neurogenic compound response is calculated for each compound as (compound/Negative Control)*100.
The values of EC150 from the dose response curve are determined for each test compound. The EC150 is the compound concentration at which 150% activity of control (100%) is reached.

In order of rising EC (150% of control):
1. CC1(CNC(=O)c2ccc3cncc(-c4ccc(Cl)cc4)c3n2)CCC(=O)N1 (stereo not shown) [Example 62, 8-(4-Chlorophenyl)-N-((2-methyl-5-oxopyrrolidin-2-yl)methyl)-1,6-naphthyridine-2-carboxamide]  0.01 µM
2. O=C(NCC1CC1)c1ccc2cncc(-c3ccc(Cl)cc3)c2n1 [Example 67, 8-(4-Chlorophenyl)-N-(cyclopropylmethyl)-1,6-naphthyridine-2-carboxamide]  0.01 µM
3. O=C(NCc1cccnc1)c1ccc2cncc(-c3ccc(Cl)cc3)c2n1 [Example 45, 8-(4-Chlorophenyl)-N-(pyridin-3-ylmethyl)-1,6-naphthyridine-2-carboxamide]  0.02 µM
4. NC(=O)c1ccc2cncc(-c3ccc(Cl)cc3)c2n1 [Example 44, 8-(4-Chlorophenyl)-1,6-naphthyridine-2-carboxamide]  0.03 µM
5. CS(=O)(=O)NNC(=O)c1ccc2cncc(-c3ccc(Cl)cc3)c2n1 [Example 49, N′-(8-(4-Chlorophenyl)-1,6-naphthyridine-2-carbonyl)methanesulfonohydrazide]  0.07 µM
6. CC(C)(C)CNC(=O)c1ccc2cncc(-c3ccc(Cl)cc3)c2n1 [Example 68, 8-(4-Chlorophenyl)-N-neopentyl-1,6-naphthyridine-2-carboxamide]  0.07 µM
7. O=C(NC1CC1)c1ccc2cncc(-c3ccc(Cl)cc3)c2n1 [Example 65, 8-(4-Chlorophenyl)-N-cyclopropyl-1,6-naphthyridine-2-carboxamide]  0.08 µM
8. O=C(NCCCn1ccnc1)c1ccc2cncc(-c3ccc(Cl)cc3)c2n1 [Example 37, N-(3-(1H-Imidazol-1-yl)propyl)-8-(4-chlorophenyl)-1,6-naphthyridine-2-carboxamide]  0.12 µM
9. CS(=O)(=O)c1cccc(CNC(=O)c2ccc3cncc(-c4ccc(Cl)cc4)c3n2)c1 [Example 51, 8-(4-Chlorophenyl)-N-(3-(methylsulfonyl)benzyl)-1,6-naphthyridine-2-carboxamide]  0.12 µM
10. COc1ccccc1CNC(=O)c1ccc2cncc(-c3ccc(Cl)cc3)c2n1 [Example 47, 8-(4-Chlorophenyl)-N-(2-methoxybenzyl)-1,6-naphthyridine-2-carboxamide]  0.13 µM
11. O=C(NC1CCOC1)c1ccc2cncc(-c3ccc(Cl)cc3)c2n1 (stereo not shown) [Example 60, 8-(4-Chlorophenyl)-N-(tetrahydrofuran-3-yl)-1,6-naphthyridine-2-carboxamide]  0.15 µM
12. O=C(NCCC(F)(F)F)c1ccc2cncc(-c3ccc(Cl)cc3)c2n1 [Example 64, 8-(4-Chlorophenyl)-N-(3,3,3-trifluoropropyl)-1,6-naphthyridine-2-carboxamide]  0.15 µM
13. O=C(c1ccc2cncc(-c3ccc(Cl)cc3)c2n1)N1CCOCC1 [Example 57, (8-(4-Chlorophenyl)-1,6-naphthyridin-2-yl)(morpholino)methanone]  0.17 µM
14. COCCN(Cc1ccccc1)C(=O)c1ccc2cncc(-c3ccc(OC)cc3)c2n1 [Example 34, N-Benzyl-N-(2-methoxyethyl)-8-(4-methoxyphenyl)-1,6-naphthyridine-2-carboxamide]  0.21 µM
15. O=C(Nc1ccccc1)c1ccc2cncc(-c3ccc(Cl)cc3)c2n1 [Example 53, 8-(4-Chlorophenyl)-N-phenyl-1,6-naphthyridine-2-carboxamide]  0.23 µM
16. O=C(NCC(F)(F)F)c1ccc2cncc(-c3ccc(Cl)cc3)c2n1 [Example 63, 8-(4-Chlorophenyl)-N-(2,2,2-trifluoroethyl)-1,6-naphthyridine-2-carboxamide]  0.23 µM
17. COc1ccc(-c2cncc3ccc(C(=O)NCCCn4nc(C)cc4C)nc23)cc1 [Example 42, N-(3-(3,5-Dimethyl-1H-pyrazol-1-yl)propyl)-8-(4-methoxyphenyl)-1,6-naphthyridine-2-carboxamide]  0.25 µM
18. Cn1cc(NC(=O)c2ccc3cncc(-c4ccc(Cl)cc4)c3n2)cn1 [Example 55, 8-(4-Chlorophenyl)-N-(1-methyl-1H-pyrazol-4-yl)-1,6-naphthyridine-2-carboxamide]  0.25 µM
19. CS(=O)(=O)c1ccc(CNC(=O)c2ccc3cncc(-c4ccc(Cl)cc4)c3n2)cc1 [Example 50, 8-(4-Chlorophenyl)-N-(4-(methylsulfonyl)benzyl)-1,6-naphthyridine-2-carboxamide]  0.32 µM
20. CC(C)(C)NC(=O)c1ccc2cncc(-c3ccc(Cl)cc3)c2n1 [Example 69, N-tert-Butyl-8-(4-chlorophenyl)-1,6-naphthyridine-2-carboxamide]  0.32 µM
21. O=C(NCc1ccccn1)c1ccc2cncc(-c3ccc(Cl)cc3)c2n1 [Example 46, 8-(4-Chlorophenyl)-N-(pyridin-2-ylmethyl)-1,6-naphthyridine-2-carboxamide]  0.51 µM
22. CC(C)NC(=O)c1ccc2cncc(-c3ccc(Cl)cc3)c2n1 [Example 70, 8-(4-Chlorophenyl)-N-isopropyl-1,6-naphthyridine-2-carboxamide]  0.6 µM
23. O=C(NCCCn1ccnc1)c1ccc2cncc(-c3ccccc3Cl)c2n1 [Example 40, N-(3-(1H-Imidazol-1-yl)propyl)-8-(2-chlorophenyl)-1,6-naphthyridine-2-carboxamide]  0.69 µM
24. CN(CC1CC1)C(=O)c1ccc2cncc(-c3ccc(Cl)cc3)c2n1 [Example 66, 8-(4-Chlorophenyl)-N-(cyclopropylmethyl)-N-methyl-1,6-naphthyridine-2-carboxamide]  0.7 µM
25. COc1ccccc1-c1cncc2ccc(C(=O)NCCCn3ccnc3)nc12 [Example 39, N-(3-(1H-Imidazol-1-yl)propyl)-8-(2-methoxyphenyl)-1,6-naphthyridine-2-carboxamide]  0.74 µM
26. O=C(Nc1cccnc1)c1ccc2cncc(-c3ccc(Cl)cc3)c2n1 [Example 54, 8-(4-Chlorophenyl)-N-(pyridin-3-yl)-1,6-naphthyridine-2-carboxamide]  0.8 µM
27. Cc1cnc(CNC(=O)c2ccc3cncc(-c4ccc(Cl)cc4)c3n2)cn1 [Example 48, 8-(4-Chlorophenyl)-N-((5-methylpyrazin-2-yl)methyl)-1,6-naphthyridine-2-carboxamide]  0.88 µM
28. O=C(NCCCn1ccnc1)c1ccc2cncc(-c3cccc(Cl)c3)c2n1 [Example 36, N-(3-(1H-Imidazol-1-yl)propyl)-8-(3-chlorophenyl)-1,6-naphthyridine-2-carboxamide]  1.04 µM
29. CC(C)(CO)NC(=O)c1ccc2cncc(-c3ccc(Cl)cc3)c2n1 [Example 71, 8-(4-Chlorophenyl)-N-(1-hydroxy-2-methylpropan-2-yl)-1,6-naphthyridine-2-carboxamide]  1.06 µM
30. CC(C)(C)OC(=O)N1CCN(C(=O)c2ccc3cncc(-c4ccc(Cl)cc4)c3n2)CC1 [Example 58, tert-Butyl 4-(8-(4-chlorophenyl)-1,6-naphthyridine-2-carbonyl)piperazine-1-carboxylate]  1.1 µM
31. O=C(NN1CCCCC1)c1ccc2cncc(-c3ccc(Cl)cc3)c2n1 [Example 59, 8-(4-Chlorophenyl)-N-(piperidin-1-yl)-1,6-naphthyridine-2-carboxamide]  1.48 µM
32. O=C(c1ccc2cncc(-c3ccc(Cl)cc3)c2n1)N1CCCCC1 [Example 56, (8-(4-Chlorophenyl)-1,6-naphthyridin-2-yl)(piperidin-1-yl)methanone]  1.51 µM
33. O=C(NCCCn1ccnc1)c1ccc2cncc(-c3ccncc3)c2n1 [Example 41, N-(3-(1H-Imidazol-1-yl)propyl)-8-(pyridin-4-yl)-1,6-naphthyridine-2-carboxamide]  1.7 µM
34. COc1ccc(-c2cncc3ccc(C(=O)NCCC(F)(F)F)nc23)cc1 [Example 35, 8-(4-Methoxyphenyl)-N-(3,3,3-trifluoropropyl)-1,6-naphthyridine-2-carboxamide]  1.74 µM
35. COc1cccc(-c2cncc3ccc(C(=O)NCCCn4ccnc4)nc23)c1 [Example 38, N-(3-(1H-Imidazol-1-yl)propyl)-8-(3-methoxyphenyl)-1,6-naphthyridine-2-carboxamide]  1.95 µM
36. O=C(NCCCn1ccnc1)c1ccc2cncc(C3=CCOCC3)c2n1 [Example 43, N-(3-(1H-Imidazol-1-yl)propyl)-8-(3,6-dihydro-2H-pyran-4-yl)-1,6-naphthyridine-2-carboxamide]  2.68 µM
37. O=C(c1ccc2cncc(-c3ccc(Cl)cc3)c2n1)N1CCNCC1 [Example 61, (8-(4-Chlorophenyl)-1,6-naphthyridin-2-yl)(piperazin-1-yl)methanone]  3.15 µM
